Structures can show the parent of a compound that is named as a salt. Where two headings read alike, the source gives them in different places. One block for each compound: values may come before it.
Tests used:
[1] = Transdermal flux test of topical patch formulations (Franz cell); format: in vitro ADME
From the text: Human cadaver skin was used and epidermal layers (stratum corneum and epidermis) were separated from the full-thickness skin as skin membrane. Samples were die-cut with an arch punch to a final diameter of about 2.0 cm^2. The release liner was removed and the drug delivery system was placed on top of the epidermis/stratum corneum with the drug adhesive layer facing the stratum corneum. Gentle pressure was applied to effect good contact between the adhesive layer and stratum corneum. The donor and receptor sides of the Franz cell were clamped together and the receptor solution containing 0.9% sodium chloride, 1% Tween 80 and 0.01% Gentamicin was added to the Franz cell. The cells were kept at 33° C. for the duration of the experiment. Samples of the receptor solution were taken at regular intervals and the active agent concentration was measured by HPLC. The removed receptor solution was replaced with fresh solution to maintain the sink conditions. The flux was calculated from the slope of cumulative amounts of the drug in the receiver compartment versus time plot.

[2] = orally administered fingolimod HCl; cited from earlier work
[3] = Solubility of fingolimod in patch adhesive; format: physicochemical
[4] = Transdermal flux test of fingolimod HCl gel and solutions (Franz cell); format: in vitro ADME, human; details: during the first 8 hours of the experiments
Protocol: Human cadaver skin was used and epidermal layers (stratum corneum and epidermis) were separated from the full-thickness skin as skin membrane and placed on top of the Franz cell. The donor compartment chamber and receptor sides of the Franz cell were clamped together. A receptor solution containing 0.9% sodium chloride was added to the cell. Solution samples or gel samples were inserted into the donor compartment chamber on top of the epidermis/stratum corneum. The cells were kept at a temperature of 33° C. during the entire experiment. Samples of the receptor solution were taken at regular intervals and the active agent concentration was measured by HPLC. The removed receptor solution was replaced with fresh solution to maintain the sink conditions. The flux was calculated from the slope of the cumulative amounts of the drug in the receiver compartment versus time.

SMILES: CCCCCCCC/C=C\CCCCCCCC(=O)OCC(O)CO (centres unmarked) [GMO, Glyceryl monooleate]
effect on the fingolimod flux ([1]; excipient in fingolimod base patches in Duro-Tak 9301, human cadaver skin, FIG. 3): enhancement effect

SMILES: CCCCCCCCCCCCOC(=O)C(C)O (centres unmarked) [LL, Lauryl Lactate]
effect on the fingolimod flux [1]: enhancement effect

SMILES: CCCCCCCCc1ccc(CCC(N)(CO)CO)cc1 [fingolimod HCl, fingolimod hydrochloride]
peak to trough fluctuations, non-phosphorylated fingolimod [2]: ≤ 20%
peak to trough fluctuations, phosphorylated (active) form of fingolimod [2]: ≤ 45%

solubility of fingolimod in adhesive ([3]; Duro-Tak 87-9301 adhesive): less than 1%
solubility of fingolimod in the adhesive ([3]; PIB adhesive): less than 1%
solubility of fingolimod in the adhesive ([3]; acrylate polymer adhesive Duro-Tak 900A): less than 1%
detection of fingolimod in the receptor solutions [4]: not detected
SMILES: CCCCCCCCc1ccc(CCC(N)(CO)CO)cc1 [fingolimod, 2-amino-2-[2-(4-octylphenyl)ethyl]propane-1,3-diol]

— patent publication US10188616B2, “Topical sphingosine-1-phosphate receptor agonist formulations and methods of using the same” (Teikoku Pharma USA, Inc., priority 2013, dated 2019)
